US11987588B2, “Modulators of the beta-3 adrenergic receptor useful for the treatment or prevention of heart failure and disorders related thereto” (Arena Pharmaceuticals, Inc., priority 2017, dated 2024)

target: Beta-3 Adrenergic Receptor (Homo sapiens (Human), UniProt P13945); assay: Homogeneous Time-Resolved Fluorescence (HTRF) cAMP antagonist assay, IC50 determination; type: cell-based; conditions: CHO-K1 cells stably expressing recombinant receptor, isoproterenol at EC90
Procedure, shortened: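 CHO-K1 cells stably expressing receptor, 1500 cells/well, preincubated briefly with 10-point 5-fold compound series (top final typically 10 or 100 μM) in PBS with 1 mM IBMX, then challenged with isoproterenol at EC90 for 1 h at room temperature. cAMP read by HTRF against on-plate standard curve; IC50 from dose-response.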

Beta-3 Adrenergic Receptor, sequence (P13945 whole entry, species assumed): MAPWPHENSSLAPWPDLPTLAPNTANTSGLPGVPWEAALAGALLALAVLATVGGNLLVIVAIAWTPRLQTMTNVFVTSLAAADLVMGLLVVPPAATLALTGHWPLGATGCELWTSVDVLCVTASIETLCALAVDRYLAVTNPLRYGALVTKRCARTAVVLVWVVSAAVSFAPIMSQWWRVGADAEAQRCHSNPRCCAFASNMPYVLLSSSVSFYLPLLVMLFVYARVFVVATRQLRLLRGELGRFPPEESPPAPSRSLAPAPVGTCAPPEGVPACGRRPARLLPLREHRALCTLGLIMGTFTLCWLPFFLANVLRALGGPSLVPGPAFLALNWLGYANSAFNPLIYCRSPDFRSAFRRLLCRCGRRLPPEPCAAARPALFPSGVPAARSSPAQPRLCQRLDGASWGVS

Compound	IC50
CNS(=O)(=O)c1cccc(OC[C@@H](O)CN[C@H]2COC3(CCN(S(=O)(=O)c4cnc5c(c4)N(C)CC(C)(C)O5)CC3)C2)c1 [Compound 473, 3-((S)-2-hydroxy-3-((R)-8-(1,3,3-trimethyl-2,3-dihydro-1H-pyrido[2,3-b][1,4]oxazin-7-ylsulfonyl)-1-oxa-8-azaspiro[4.5]decan-3-ylamino)propoxy)-N-methylbenzenesulfonamide]	59.2 nM
CNS(=O)(=O)c1cccc(OC[C@@H](O)CN[C@H]2COC3(CCN(S(=O)(=O)c4cc5c(nc4N)OCCN5C)CC3)C2)c1 [Compound 455, 3-((S)-3-((R)-8-(6-amino-1-methyl-2,3-dihydro-1H-pyrido[2,3-b][1,4]oxazin-7-ylsulfonyl)-1-oxa-8-azaspiro[4.5]decan-3-ylamino)-2-hydroxypropoxy)-N-methylbenzenesulfonamide]	25.1 nM
CCNS(=O)(=O)c1cccc(OC[C@@H](O)CNC2COC3(CCN(S(=O)(=O)c4cnn(-c5ccccc5)c4C)CC3)C2)c1 (stereo partly drawn) [Compound 230, N-ethyl-3-((2S)-2-hydroxy-3-(8-(5-methyl-1-phenyl-1H-pyrazol-4-ylsulfonyl)-1-oxa-8-azaspiro[4.5]decan-3-ylamino)propoxy)benzenesulfonamide]	85.4 nM
CNS(=O)(=O)c1cccc(OC[C@@H](O)CNC2COC3(CCN(S(=O)(=O)c4ccc(Br)c(Cl)c4)CC3)C2)c1 (stereo partly drawn) [Compound 155, 3-((2S)-3-(8-(4-bromo-3-chlorophenylsulfonyl)-1-oxa-8-azaspiro[4.5]decan-3-ylamino)-2-hydroxypropoxy)-N-methylbenzenesulfonamide]	4.36 nM
CNS(=O)(=O)c1cccc(OC[C@@H](O)CN[C@@H]2COC3(CCN(S(=O)(=O)c4cccc(-c5ccc(N)nc5)c4)CC3)C2)c1 [Compound 286, 3-((S)-3-((S)-8-(3-(6-aminopyridin-3-yl)phenylsulfonyl)-1-oxa-8-azaspiro[4.5]decan-3-ylamino)-2-hydroxypropoxy)-N-methylbenzenesulfonamide]	20.5 nM
CNS(=O)(=O)c1cccc(OC[C@@H](O)CNC2COC3(CCN(S(=O)(=O)c4ccc5c(ccn5C)c4)CC3)C2)c1 (stereo partly drawn) [Compound 221, 3-((2S)-2-hydroxy-3-(8-(1-methyl-1H-indol-5-ylsulfonyl)-1-oxa-8-azaspiro[4.5]decan-3-ylamino)propoxy)-N-methylbenzenesulfonamide]	9.58 nM
O=S(=O)(NC1CC(F)(F)C1)c1cccc(OC[C@@H](O)CNC2COC3(CCN(S(=O)(=O)c4ccc5ccccc5c4)CC3)C2)c1 (stereo partly drawn) [Compound 89, N-(3,3-difluorocyclobutyl)-3-((2S)-2-hydroxy-3-(8-(naphthalen-2-ylsulfonyl)-1-oxa-8-azaspiro[4.5]decan-3-ylamino)propoxy)benzenesulfonamide]	429 nM
CNS(=O)(=O)c1cccc(OC[C@@H](O)CNC2COC3(CCN(S(=O)(=O)c4ccc5c(c4)NC(=O)CO5)CC3)C2)c1 (stereo partly drawn) [Compound 126, 3-((2S)-2-hydroxy-3-(8-(3-oxo-3,4-dihydro-2H-benzo[b][1,4]oxazin-6-ylsulfonyl)-1-oxa-8-azaspiro[4.5]decan-3-ylamino)propoxy)-N-methylbenzenesulfonamide]	13 nM
CNS(=O)(=O)c1cccc(OC[C@@H](O)CNC2COC3(CCN(S(=O)(=O)c4ccc(OC(F)(F)F)cc4)CC3)C2)c1 (stereo partly drawn) [Compound 57, 3-((2S)-2-hydroxy-3-(8-(4-(trifluoromethoxy)phenylsulfonyl)-1-oxa-8-azaspiro[4.5]decan-3-ylamino)propoxy)-N-methylbenzenesulfonamide]	31.7 nM
CNS(=O)(=O)c1cccc(OC[C@@H](O)CN[C@H]2COC3(CCN(S(=O)(=O)c4ccc5[nH]cnc5c4)CC3)C2)c1 [Compound 503, 3-((S)-3-((R)-8-(1H-benzo[d]imidazol-5-ylsulfonyl)-1-oxa-8-azaspiro[4.5]decan-3-ylamino)-2-hydroxypropoxy)-N-methylbenzenesulfonamide]	28.9 nM
CNS(=O)(=O)c1cccc(OC[C@@H](O)CNC2COC3(CCN(S(=O)(=O)c4cc(F)ccc4C)CC3)C2)c1 (stereo partly drawn) [Compound 204, 3-((2S)-3-(8-(5-fluoro-2-methylphenylsulfonyl)-1-oxa-8-azaspiro[4.5]decan-3-ylamino)-2-hydroxypropoxy)-N-methylbenzenesulfonamide]	12.1 nM
CNS(=O)(=O)c1cccc(OC[C@@H](O)CNC2COC3(CCN(S(=O)(=O)c4ccc(OC)c5nonc45)CC3)C2)c1 (stereo partly drawn) [Compound 173, 3-((2S)-2-hydroxy-3-(8-(7-methoxybenzo[c][1,2,5]oxadiazol-4-ylsulfonyl)-1-oxa-8-azaspiro[4.5]decan-3-ylamino)propoxy)-N-methylbenzenesulfonamide]	29 nM
CNS(=O)(=O)c1cccc(OC[C@@H](O)CNC2COC3(CCN(S(=O)(=O)c4ccccc4-c4ccccc4)CC3)C2)c1 (stereo partly drawn) [Compound 174, 3-((2S)-3-(8-(biphenyl-2-ylsulfonyl)-1-oxa-8-azaspiro[4.5]decan-3-ylamino)-2-hydroxypropoxy)-N-methylbenzenesulfonamide]	125 nM
CNS(=O)(=O)c1cccc(OC[C@@H](O)CNC2COC3(CCN(S(=O)(=O)c4cccc(Oc5ccccc5C(F)(F)F)c4)CC3)C2)c1 (stereo partly drawn) [Compound 170, 3-((2S)-2-hydroxy-3-(8-(3-(2-(trifluoromethyl)phenoxy)phenylsulfonyl)-1-oxa-8-azaspiro[4.5]decan-3-ylamino)propoxy)-N-methylbenzenesulfonamide]	50.6 nM
CNS(=O)(=O)c1cccc(OC[C@@H](O)CN[C@H]2COC3(CCN(S(=O)(=O)c4c[nH]c5cccnc45)CC3)C2)c1 [Compound 529, 3-((S)-3-((R)-8-(1H-pyrrolo[3,2-b]pyridin-3-ylsulfonyl)-1-oxa-8-azaspiro[4.5]decan-3-ylamino)-2-hydroxypropoxy)-N-methylbenzenesulfonamide]	124 nM
CNS(=O)(=O)c1cccc(OC[C@@H](O)CN[C@H]2COC3(CCN(S(=O)(=O)c4cnc5c(c4)OCCN5)CC3)C2)c1 [Compound 500, 3-((S)-3-((R)-8-(3,4-dihydro-2H-pyrido[3,2-b][1,4]oxazin-7-ylsulfonyl)-1-oxa-8-azaspiro[4.5]decan-3-ylamino)-2-hydroxypropoxy)-N-methylbenzenesulfonamide]	28.8 nM
CCNS(=O)(=O)c1cccc(OC[C@@H](O)CNC2COC3(CCN(S(=O)(=O)c4cccc(-c5ccc(CC#N)cc5)c4)CC3)C2)c1 (stereo partly drawn) [Compound 214, 3-((2S)-3-(8-(4′-(cyanomethyl)biphenyl-3-ylsulfonyl)-1-oxa-8-azaspiro[4.5]decan-3-ylamino)-2-hydroxypropoxy)-N-ethylbenzenesulfonamide]	31.4 nM
CNS(=O)(=O)c1cccc(OC[C@@H](O)CNC2COC3(CCN(S(=O)(=O)c4cnn(-c5ccccc5)c4)CC3)C2)c1 (stereo partly drawn) [Compound 243, 3-((2S)-2-hydroxy-3-(8-(1-phenyl-1H-pyrazol-4-ylsulfonyl)-1-oxa-8-azaspiro[4.5]decan-3-ylamino)propoxy)-N-methylbenzenesulfonamide]	26.2 nM
CNS(=O)(=O)c1cccc(OC[C@@H](O)CNC2COC3(CCN(S(=O)(=O)c4ccc(-c5ccc(C(F)(F)F)cc5)cc4)CC3)C2)c1 (stereo partly drawn) [Compound 121, 3-((2S)-2-hydroxy-3-(8-(4′-(trifluoromethyl)biphenyl-4-ylsulfonyl)-1-oxa-8-azaspiro[4.5]decan-3-ylamino)propoxy)-N-methylbenzenesulfonamide]	67 nM
CNS(=O)(=O)c1cccc(OC[C@@H](O)CNC2COC3(CCN(S(=O)(=O)c4ccc(Cl)c(OC)c4)CC3)C2)c1 (stereo partly drawn) [Compound 206, 3-((2S)-3-(8-(4-chloro-3-methoxyphenylsulfonyl)-1-oxa-8-azaspiro[4.5]decan-3-ylamino)-2-hydroxypropoxy)-N-methylbenzenesulfonamide]	9.62 nM
CNS(=O)(=O)c1cccc(OC[C@@H](O)CNC2COC3(CCN(S(=O)(=O)c4cccc(-c5cnn(CCO)c5)c4)CC3)C2)c1 (stereo partly drawn) [Compound 70, 3-((2S)-2-hydroxy-3-(8-(3-(1-(2-hydroxyethyl)-1H-pyrazol-4-yl)phenylsulfonyl)-1-oxa-8-azaspiro[4.5]decan-3-ylamino)propoxy)-N-methylbenzenesulfonamide]	25.7 nM
CNS(=O)(=O)c1cccc(OC[C@@H](O)CNC2COC3(CCN(S(=O)(=O)c4cccc(-c5ccc(CC#N)cc5)c4)CC3)C2)c1 (stereo partly drawn) [Compound 117, 3-((2S)-3-(8-(4′-(cyanomethyl)biphenyl-3-ylsulfonyl)-1-oxa-8-azaspiro[4.5]decan-3-ylamino)-2-hydroxypropoxy)-N-methylbenzenesulfonamide]	14.5 nM
Cc1cc(S(=O)(=O)N2CCC3(CC2)CC(NC[C@H](O)COc2cccc(S(=O)(=O)NCCCN(C)C)c2)CO3)ccc1Br (stereo partly drawn) [Compound 310, 3-((2S)-3-(8-(4-bromo-3-methylphenylsulfonyl)-1-oxa-8-azaspiro[4.5]decan-3-ylamino)-2-hydroxypropoxy)-N-(3-(dimethylamino)propyl)benzenesulfonamide]	877 nM
CNS(=O)(=O)c1cccc(OC[C@@H](O)CNC2COC3(CCN(S(=O)(=O)c4ccc(Cl)cc4Cl)CC3)C2)c1 (stereo partly drawn) [Compound 158, 3-((2S)-3-(8-(2,4-dichlorophenylsulfonyl)-1-oxa-8-azaspiro[4.5]decan-3-ylamino)-2-hydroxypropoxy)-N-methylbenzenesulfonamide]	25.6 nM
COc1ccc(S(=O)(=O)N2CCC3(CC2)CC(NC[C@H](O)COc2cccc(S(=O)(=O)NCCCN(C)C)c2)CO3)cc1C (stereo partly drawn) [Compound 308, N-(3-(dimethylamino)propyl)-3-((2S)-2-hydroxy-3-(8-(4-methoxy-3-methylphenylsulfonyl)-1-oxa-8-azaspiro[4.5]decan-3-ylamino)propoxy)benzenesulfonamide]	1820 nM
CCn1ccc(=O)c(S(=O)(=O)N2CCC3(CC2)C[C@@H](NC[C@H](O)COc2cccc(S(N)(=O)=O)c2)CO3)c1 [Compound 587, 3-((S)-3-((R)-8-(1-ethyl-4-oxo-1,4-dihydropyridin-3-ylsulfonyl)-1-oxa-8-azaspiro[4.5]decan-3-ylamino)-2-hydroxypropoxy)benzenesulfonamide]	2390 nM
